# In US11001586B2, “Alkyl pyrrolopyrimidine analogs and methods of making and using same” (The University of North Carolina at Chapel Hill, priority 2016, dated 2021):
# Key:
# Mer tyrosine kinase = Mer tyrosine kinase (Homo sapiens (Human), UniProt Q12866); experiment: Evaluation of activity against Mer tyrosine kinase; assay type: biochemical
# Tyro3 tyrosine kinase = Tyro3 tyrosine kinase (Homo sapiens (Human), UniProt Q06418); experiment: Evaluation of activity against Tyro3 tyrosine kinase; assay type: biochemical
# Tyro3 tyrosine kinase, sequence (Q06418 41-890): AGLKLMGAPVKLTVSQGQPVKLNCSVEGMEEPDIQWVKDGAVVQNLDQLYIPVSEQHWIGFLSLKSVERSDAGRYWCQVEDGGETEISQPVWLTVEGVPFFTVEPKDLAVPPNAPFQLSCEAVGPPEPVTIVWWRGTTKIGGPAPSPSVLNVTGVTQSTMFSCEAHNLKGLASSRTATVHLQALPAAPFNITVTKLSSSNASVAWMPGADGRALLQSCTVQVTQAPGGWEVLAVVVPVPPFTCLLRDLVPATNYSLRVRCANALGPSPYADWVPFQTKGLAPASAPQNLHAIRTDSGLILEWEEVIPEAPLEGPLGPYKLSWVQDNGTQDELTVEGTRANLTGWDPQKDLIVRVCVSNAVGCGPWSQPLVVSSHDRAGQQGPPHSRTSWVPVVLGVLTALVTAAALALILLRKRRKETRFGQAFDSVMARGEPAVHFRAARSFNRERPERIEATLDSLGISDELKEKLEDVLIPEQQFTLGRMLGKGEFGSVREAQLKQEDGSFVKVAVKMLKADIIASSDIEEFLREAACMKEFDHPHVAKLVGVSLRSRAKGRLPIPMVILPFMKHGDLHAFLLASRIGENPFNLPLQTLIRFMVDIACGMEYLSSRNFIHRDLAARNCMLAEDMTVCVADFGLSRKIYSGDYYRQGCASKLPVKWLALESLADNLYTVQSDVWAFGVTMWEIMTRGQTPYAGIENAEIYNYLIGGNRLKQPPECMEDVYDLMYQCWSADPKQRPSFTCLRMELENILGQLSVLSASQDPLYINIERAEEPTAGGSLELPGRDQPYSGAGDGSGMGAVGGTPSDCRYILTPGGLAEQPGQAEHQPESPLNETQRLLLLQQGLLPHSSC
# Mer tyrosine kinase, sequence (Q12866 21-999): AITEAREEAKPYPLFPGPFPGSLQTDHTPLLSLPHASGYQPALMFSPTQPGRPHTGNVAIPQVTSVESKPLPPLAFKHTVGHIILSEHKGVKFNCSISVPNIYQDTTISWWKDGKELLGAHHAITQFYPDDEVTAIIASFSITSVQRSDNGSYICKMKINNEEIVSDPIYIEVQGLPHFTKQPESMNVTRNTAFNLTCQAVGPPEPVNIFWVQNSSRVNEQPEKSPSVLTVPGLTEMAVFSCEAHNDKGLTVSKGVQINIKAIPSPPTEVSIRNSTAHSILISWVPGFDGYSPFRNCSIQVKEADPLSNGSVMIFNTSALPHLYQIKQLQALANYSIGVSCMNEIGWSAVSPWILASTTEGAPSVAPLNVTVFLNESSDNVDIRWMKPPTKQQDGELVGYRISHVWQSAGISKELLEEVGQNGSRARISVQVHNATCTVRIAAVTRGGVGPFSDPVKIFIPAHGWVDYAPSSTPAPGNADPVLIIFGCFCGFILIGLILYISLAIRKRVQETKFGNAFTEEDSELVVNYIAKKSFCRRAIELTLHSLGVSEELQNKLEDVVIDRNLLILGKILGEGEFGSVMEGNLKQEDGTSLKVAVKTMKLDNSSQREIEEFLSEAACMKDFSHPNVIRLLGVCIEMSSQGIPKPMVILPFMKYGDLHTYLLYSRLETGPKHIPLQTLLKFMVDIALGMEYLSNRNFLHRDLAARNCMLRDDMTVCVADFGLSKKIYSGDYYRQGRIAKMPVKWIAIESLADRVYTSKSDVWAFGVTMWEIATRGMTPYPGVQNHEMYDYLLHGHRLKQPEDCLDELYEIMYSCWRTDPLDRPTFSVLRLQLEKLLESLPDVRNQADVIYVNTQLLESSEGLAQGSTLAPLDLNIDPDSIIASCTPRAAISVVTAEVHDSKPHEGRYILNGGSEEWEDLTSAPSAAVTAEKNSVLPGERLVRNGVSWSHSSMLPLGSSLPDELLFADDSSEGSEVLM
Compound,IC50 (Mer tyrosine kinase) [nM],IC50 (Tyro3 tyrosine kinase) [nM]
CCC[C@H](C)Nc1ncc2c(C3CCN(C(=O)c4cc(C)nc(C)c4)CC3)cn([C@H]3CC[C@H](CO)CC3)c2n1 [compound 86],< 10,10 to 100
"CCC[C@H](C)Nc1ncc2c(C3CCN(C(=O)c4cc(C)nc(C)c4)CC3)cn([C@H]3CC[C@H](C(F)F)CC3)c2n1 [compound 88, (4-(7-((1R,4S)-4-(difluoromethyl)cyclohexyl)-2-(((S)-pentan-2-yl)amino)-7H-pyrrolo[2,3-d]pyrimidin-5-yl)piperidin-1-yl)(2,6-dimethylpyridin-4-yl)methanone]",< 10,100 to 1000
"C[C@H](Nc1ncc2c(C3CCN(CC4CCCCC4)CC3)cn([C@H]3CC[C@H](O)CC3)c2n1)c1ccccc1 [compound 92, (1S,4R)-4-(5-(1-(cyclohexylmethyl)piperidin-4-yl)-2-(((S)-1-phenylethyl)amino)-7H-pyrrolo[2,3-d]pyrimidin-7-yl)cyclohexan-1-ol]",< 10,100 to 1000
"CCC[C@H](C)Nc1ncc2c(C3CCN(C)C3)cn([C@H]3CC[C@H](O)CC3)c2n1 (stereo partly drawn) [compound 99, (1S,4R)-4-(5-(1-methylpyrrolidin-3-yl)-2-(((S)-pentan-2-yl)amino)-7H-pyrrolo[2,3-d]pyrimidin-7-yl)cyclohexan-1-ol]",< 10,100 to 1000
"Cc1cc(C(=O)N2CCC(c3cn([C@H]4CC[C@H](O)CC4)c4nc(NCCCCO)ncc34)CC2)cc(C)n1 [compound 100, (2,6-dimethylpyridin-4-yl)(4-(2-((4-hydroxybutyl)amino)-7-((1r,4r)-4-hydroxycyclohexyl)-7H-pyrrolo[2,3-d]pyrimidin-5-yl)piperidin-1-yl)methanone]",< 10,1000 to 30000
"Cc1cc(C(=O)N2CCC(c3cn([C@H]4CC[C@H](O)CC4)c4nc(NCCCC(F)(F)F)ncc34)CC2)cc(C)n1 [compound 101, (2,6-dimethylpyridin-4-yl)(4-(7-((1r,4r)-4-hydroxycyclohexyl)-2-((4,4,4-trifluorobutyl)amino)-7H-pyrrolo[2,3-d]pyrimidin-5-yl)piperidin-1-yl)methanone]",< 10,1000 to 30000
"CCC[C@H](C)Nc1ncc2c(C3CCN(C(=O)c4cc(C)nc(C)c4)CC3)cn(C[C@H]3CC[C@H](N)CC3)c2n1 [compound 102, (4-(7-(((1R,4S)-4-aminocyclohexyl)methyl)-2-(((S)-pentan-2-yl)amino)-7H-pyrrolo[2,3-d]pyrimidin-5-yl)piperidin-1-yl)(2,6-dimethylpyridin-4-yl)methanone]",< 10,100 to 1000

# Now from value to compound:
IC50 (Mer tyrosine kinase) [nM],IC50 (Tyro3 tyrosine kinase) [nM],Compound
< 10,100 to 1000,"CCC[C@H](C)Nc1ncc2c(C3CCN(C(=O)c4ccc(N)cc4)CC3)cn([C@H]3CC[C@H](O)CC3)c2n1 [compound 82, (4-aminophenyl)(4-(7-((1R,4S)-4-hydroxycyclohexyl)-2-(((S)-pentan-2-yl)amino)-7H-pyrrolo[2,3-d]pyrimidin-5-yl)piperidin-1-yl)methanone]"
< 10,10 to 100,"CCC[C@H](C)Nc1ncc2c(C3CCN(C(=O)c4ccc(NC)cc4)CC3)cn([C@H]3CC[C@H](O)CC3)c2n1 [compound 83, (4-(7-((1R,4S)-4-hydroxycyclohexyl)-2-(((S)-pentan-2-yl)amino)-7H-pyrrolo[2,3-d]pyrimidin-5-yl)piperidin-1-yl)(4-(methylamino)phenyl)methanone]"
< 10,100 to 1000,"CCC[C@H](C)Nc1ncc2c(C3CCN(C(=O)c4ccc(Cl)cc4)CC3)cn([C@H]3CC[C@H](O)CC3)c2n1 [compound 84, (4-chlorophenyl)(4-(7-((1R,4S)-4-hydroxycyclohexyl)-2-(((S)-pentan-2-yl)amino)-7H-pyrrolo[2,3-d]pyrimidin-5-yl)piperidin-1-yl)methanone]"
< 10,10 to 100,"CCC[C@H](C)Nc1ncc2c(C3CCN(C(=O)c4ccc(CNC)cc4)CC3)cn([C@H]3CC[C@H](O)CC3)c2n1 [compound 85, (4-(7-((1R,4S)-4-hydroxycyclohexyl)-2-(((S)-pentan-2-yl)amino)-7H-pyrrolo[2,3-d]pyrimidin-5-yl)piperidin-1-yl)(4-((methylamino)methyl)phenyl)methanone]"
< 10,10 to 100,"CCC[C@H](C)Nc1ncc2c(C3CCN(C(=O)c4ccc(CN(C)C)cc4)CC3)cn([C@H]3CC[C@H](O)CC3)c2n1 [compound 87, (4-((dimethylamino)methyl)phenyl)(4-(7-((1R,4S)-4-hydroxycyclohexyl)-2-(((S)-pentan-2-yl)amino)-7H-pyrrolo[2,3-d]pyrimidin-5-yl)piperidin-1-yl)methanone]"
< 10,100 to 1000,"CCC[C@H](C)Nc1ncc2c(C3CCN(C(=O)c4ccc(F)cc4)CC3)cn([C@H]3CC[C@H](O)CC3)c2n1 [compound 89, (4-fluorophenyl)(4-(7-((1R,4S)-4-hydroxycyclohexyl)-2-(((S)-pentan-2-yl)amino)-7H-pyrrolo[2,3-d]pyrimidin-5-yl)piperidin-1-yl)methanone]"
< 10,10 to 100,"CCC[C@H](C)Nc1ncc2c(C3CCN(C(=O)c4cc(C)nc(C)c4)CC3)cn([C@H]3CC[C@H](N)CC3)c2n1 [compound 95, (4-(7-((1R,4S)-4-aminocyclohexyl)-2-(((S)-pentan-2-yl)amino)-7H-pyrrolo[2,3-d]pyrimidin-5-yl)piperidin-1-yl)(2,6-dimethylpyridin-4-yl)methanone]"
